Assay results published in PubChem BioAssay (NCI).
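Five concentrations, 48 hours, 96-well plates. TGI marks complete inhibition of growth.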

Columns and labels:
Test in all cases: inhibition of tumour cell growth, NCI panel, 48 h
[1] = tested on: UACC-62 melanoma
[2] = tested on: U251 CNS
[3] = tested on: 786-0 renal
[4] = tested on: OVCAR-5 ovarian
[5] = tested on: UO-31 renal
[6] = tested on: NCI-H522 lung
[7] = tested on: COLO 205 colon
[8] = tested on: PC-3 prostate
[9] = tested on: RPMI-8226 leukemia
[10] = tested on: BT-549 breast
[11] = tested on: MCF7 breast
[12] = tested on: SN12C renal
[13] = tested on: M14 melanoma
[14] = tested on: EKVX NSCLC
[15] = tested on: OVCAR-4 ovarian
[16] = tested on: A498 renal
[17] = tested on: RXF 393 renal
[18] = tested on: UACC-257 melanoma
[19] = tested on: NCI-H460 lung
[20] = tested on: NCI-H226 lung
[21] = tested on: SNB-19 CNS
[22] = tested on: NCI-H23 lung
[23] = tested on: SR leukemia
[24] = tested on: KM12 colon
[25] = tested on: SK-OV-3 ovarian
[26] = tested on: ACHN renal
[27] = tested on: OVCAR-3 ovarian
[28] = tested on: MDA-MB-435
[29] = tested on: HOP-62 NSCLC
[30] = tested on: SF-295 CNS
[31] = tested on: SNB-75 CNS
[32] = tested on: HCT-15 colon
[33] = tested on: CCRF-CEM leukemia
[34] = tested on: A549 NSCLC
[35] = tested on: DU-145 prostate
[36] = tested on: TK-10 renal
[37] = tested on: SK-MEL-28 melanoma
[38] = tested on: HCT-116 colon
[39] = tested on: IGROV1 ovarian
[40] = tested on: SK-MEL-2 melanoma
[41] = tested on: SW-620 colon
[42] = tested on: OVCAR-8 ovarian
[43] = tested on: MDA-N
[44] = tested on: HS 578T breast
[45] = tested on: HOP-92 NSCLC
[46] = tested on: NCI/ADR-RES ovarian
[47] = tested on: MOLT-4 leukemia
[48] = tested on: K-562 leukemia
[49] = tested on: LOX IMVI melanoma
[50] = tested on: HT29 colon
[51] = tested on: CAKI-1 renal
[52] = tested on: HL-60(TB) leukemia
[53] = tested on: MALME-3M melanoma
[54] = tested on: SF-268 CNS
[55] = tested on: T-47D breast
[56] = tested on: SK-MEL-5 melanoma
[57] = tested on: SF-539 CNS
[58] = tested on: MDA-MB-231 breast
[59] = tested on: HCC-2998 colon

Structure (SMILES): O=C1Oc2ccccc2C(=O)/C1=C1/C=C(c2ccccc2)SS1
- TGI [1]: > 100 µM
- TGI [2]: > 100 µM
- TGI [3]: > 100 µM
- TGI [4]: > 100 µM
- TGI [5]: > 100 µM
- TGI [6]: > 100 µM
- TGI [7]: > 100 µM
- TGI [8]: > 100 µM
- TGI [9]: > 100 µM
- TGI [10]: > 100 µM
- TGI [11]: > 100 µM
- TGI [12]: > 100 µM
- TGI [13]: > 100 µM
- TGI [14]: > 100 µM
- TGI [15]: > 100 µM
- TGI [16]: > 100 µM
- TGI [17]: > 100 µM
- TGI [18]: > 100 µM
- TGI [19]: > 100 µM
- TGI [20]: > 100 µM
- TGI [21]: > 100 µM
- TGI [22]: > 100 µM
- TGI [23]: 61.3 µM
- TGI [24]: > 100 µM
- TGI [25]: > 100 µM
- TGI [26]: > 100 µM
- TGI [27]: > 100 µM
- TGI [28]: > 100 µM
- TGI [29]: > 100 µM
- TGI [30]: > 100 µM
- TGI [31]: > 100 µM
- TGI [32]: > 100 µM
- TGI [33]: 49.6 µM
- TGI [34]: > 100 µM
- TGI [35]: > 100 µM
- TGI [36]: > 100 µM
- TGI [37]: > 100 µM
- TGI [38]: > 100 µM
- TGI [39]: > 100 µM
- TGI [40]: > 100 µM
- TGI [41]: > 100 µM
- TGI [42]: > 100 µM
- TGI [43]: > 100 µM
- TGI [44]: > 100 µM
- TGI [45]: > 100 µM
- TGI [46]: > 100 µM
- TGI [47]: 71.8 µM
- TGI [48]: > 100 µM
- TGI [49]: > 100 µM
- TGI [50]: > 100 µM
- TGI [51]: > 100 µM
- TGI [52]: 45.2 µM
- TGI [53]: > 100 µM
- TGI [54]: > 100 µM
- TGI [55]: > 100 µM
- TGI [56]: > 100 µM
- TGI [57]: > 100 µM
- TGI [58]: > 100 µM
- TGI [59]: > 100 µM

Structure (SMILES): CCN(C)c1nc(N(C)CC)c2nc(N(C)CC)nc(N(C)CC)c2n1
- TGI [1]: > 100 µM
- TGI [2]: > 100 µM
- TGI [3]: > 100 µM
- TGI [4]: > 100 µM
- TGI [5]: > 100 µM
- TGI [6]: > 100 µM
- TGI [7]: > 100 µM
- TGI [8]: > 100 µM
- TGI [9]: > 100 µM
- TGI [10]: > 100 µM
- TGI [11]: > 100 µM
- TGI [12]: > 100 µM
- TGI [13]: > 100 µM
- TGI [14]: > 100 µM
- TGI [15]: > 100 µM
- TGI [16]: > 100 µM
- TGI [17]: > 100 µM
- TGI [18]: > 100 µM
- TGI [19]: > 100 µM
- TGI [21]: > 100 µM
- TGI [22]: > 100 µM
- TGI [23]: > 100 µM
- TGI [24]: > 100 µM
- TGI [25]: > 100 µM
- TGI [26]: > 100 µM
- TGI [27]: > 100 µM
- TGI [28]: > 100 µM
- TGI [29]: > 100 µM
- TGI [30]: > 100 µM
- TGI [31]: > 100 µM
- TGI [32]: > 100 µM
- TGI [33]: > 100 µM
- TGI [34]: > 100 µM
- TGI [35]: > 100 µM
- TGI [36]: > 100 µM
- TGI [37]: > 100 µM
- TGI [38]: > 100 µM
- TGI [39]: > 100 µM
- TGI [40]: > 100 µM
- TGI [41]: > 100 µM
- TGI [42]: > 100 µM
- TGI [43]: > 100 µM
- TGI [44]: > 100 µM
- TGI [45]: > 100 µM
- TGI [46]: > 100 µM
- TGI [47]: > 100 µM
- TGI [48]: > 100 µM
- TGI [49]: > 100 µM
- TGI [50]: > 100 µM
- TGI [51]: > 100 µM
- TGI [52]: > 100 µM
- TGI [53]: > 100 µM
- TGI [54]: > 100 µM
- TGI [55]: > 100 µM
- TGI [56]: > 100 µM
- TGI [57]: > 100 µM
- TGI [58]: > 100 µM
- TGI [59]: > 100 µM

Structure (SMILES): O=c1ccc2ccc(S)cc2o1
- TGI [1]: > 100 µM
- TGI [2]: > 100 µM
- TGI [3]: > 100 µM
- TGI [4]: > 100 µM
- TGI [5]: > 100 µM
- TGI [6]: > 100 µM
- TGI [7]: > 100 µM
- TGI [8]: > 100 µM
- TGI [9]: > 100 µM
- TGI [10]: > 100 µM
- TGI [11]: > 100 µM
- TGI [12]: > 100 µM
- TGI [13]: > 100 µM
- TGI [14]: > 100 µM
- TGI [15]: > 100 µM
- TGI [16]: > 100 µM
- TGI [17]: > 100 µM
- TGI [18]: > 100 µM
- TGI [19]: > 100 µM
- TGI [20]: > 100 µM
- TGI [21]: > 100 µM
- TGI [22]: > 100 µM
- TGI [23]: > 100 µM
- TGI [24]: > 100 µM
- TGI [25]: > 100 µM
- TGI [26]: > 100 µM
- TGI [27]: > 100 µM
- TGI [28]: > 100 µM
- TGI [29]: > 100 µM
- TGI [30]: > 100 µM
- TGI [31]: > 100 µM
- TGI [32]: > 100 µM
- TGI [34]: > 100 µM
- TGI [35]: > 100 µM
- TGI [36]: > 100 µM
- TGI [37]: > 100 µM
- TGI [38]: > 100 µM
- TGI [39]: > 100 µM
- TGI [40]: > 100 µM
- TGI [41]: > 100 µM
- TGI [42]: > 100 µM
- TGI [43]: > 100 µM
- TGI [44]: > 100 µM
- TGI [45]: > 100 µM
- TGI [46]: > 100 µM
- TGI [47]: > 100 µM
- TGI [49]: > 100 µM
- TGI [50]: > 100 µM
- TGI [51]: > 100 µM
- TGI [52]: > 100 µM
- TGI [53]: > 100 µM
- TGI [54]: > 100 µM
- TGI [55]: > 100 µM
- TGI [56]: > 100 µM
- TGI [57]: > 100 µM
- TGI [58]: > 100 µM
- TGI [59]: > 100 µM

Structure (SMILES): O=C(CC(NC(=O)C(F)(F)F)C(=O)O)OCc1ccccc1 (stereo not drawn)
- TGI [1]: > 100 µM
- TGI [2]: > 100 µM
- TGI [3]: > 100 µM
- TGI [4]: > 100 µM
- TGI [5]: > 100 µM
- TGI [6]: > 100 µM
- TGI [7]: > 100 µM
- TGI [8]: > 100 µM
- TGI [9]: > 100 µM
- TGI [10]: > 100 µM
- TGI [11]: > 100 µM
- TGI [12]: > 100 µM
- TGI [13]: > 100 µM
- TGI [14]: > 100 µM
- TGI [15]: > 100 µM
- TGI [16]: > 100 µM
- TGI [17]: > 100 µM
- TGI [18]: > 100 µM
- TGI [19]: > 100 µM
- TGI [20]: > 100 µM
- TGI [21]: > 100 µM
- TGI [22]: > 100 µM
- TGI [23]: > 100 µM
- TGI [24]: > 100 µM
- TGI [25]: > 100 µM
- TGI [26]: > 100 µM
- TGI [27]: > 100 µM
- TGI [28]: > 100 µM
- TGI [29]: > 100 µM
- TGI [30]: > 100 µM
- TGI [31]: > 100 µM
- TGI [32]: > 100 µM
- TGI [33]: > 100 µM
- TGI [34]: > 100 µM
- TGI [35]: > 100 µM
- TGI [36]: > 100 µM
- TGI [37]: > 100 µM
- TGI [38]: > 100 µM
- TGI [39]: > 100 µM
- TGI [40]: > 100 µM
- TGI [41]: > 100 µM
- TGI [42]: > 100 µM
- TGI [43]: > 100 µM
- TGI [44]: > 100 µM
- TGI [45]: > 100 µM
- TGI [46]: > 100 µM
- TGI [47]: > 100 µM
- TGI [48]: > 100 µM
- TGI [49]: > 100 µM
- TGI [50]: > 100 µM
- TGI [51]: > 100 µM
- TGI [52]: > 100 µM
- TGI [53]: > 100 µM
- TGI [54]: > 100 µM
- TGI [55]: > 100 µM
- TGI [56]: > 100 µM
- TGI [57]: > 100 µM
- TGI [58]: > 100 µM
- TGI [59]: > 100 µM
